In patent US9962329B2, “Cosmetic use of the combination of a carob germ extract and caffeine as a slimming active agent” (ISP INVESTMENTS INC., priority 2012, dated 2018):

What was measured:
aquaglyceroporin 7 = assay: Immuno-detection of aquaglyceroporin 7 expression in differentiated 3T3-L1 adipocyte cells; assay type: cell-based; details: differentiated 3T3-L1 cells; with respect to untreated control; carob extract 1% daily for 12 days, caffeine 2 mM for 5 hours
Description: 3T3-L1 adipocyte cells are cultivated in a DMEM medium with 4.5 g/l glucose, 2 mM glutamine and 10% fetal bovine serum. Two days after the cell confluence phase, the differentiation of 3T3-L1 cells into adipocytes is induced by adding a solution of 0.5 mM of IBMX, 1 μM of dexamethasone and 10 μg/ml of insulin (Sigma, St. Louis, Mo., USA) in the culture medium for 3 days. Then, only the insulin is kept for 3 to 4 days of additional culture. The cells are then kept in culture, in a standard medium, for another 3 days. The treatment is performed from the start of the differentiation induction phase by a daily application, for 12 days, of 1×PBS (Lonza, Rockland, Me., USA) for the untreated control, carob germ extract with a dry weight of 2.5 g/kg as obtained in example 1, diluted to 1% in PBS, or carob germ extract as obtained in example 1, diluted to 1% in PBS and to which 2 mM of caffeine is added for the last 5 hours of the treatment. A 5-hour treatment with 2 mM of caffeine was also performed. […] The cell membranes are permeabilized with acetone for 4 minutes at -20° C. The non-specific sites are saturated with 3% bovine serum albumin (Sigma-Aldrich, […], Germany) for 15 minutes. […] Three images for each condition are analyzed using the Image-Pro Analyzer 6.3 software. […]

[1] = tested on: differentiated 3T3-L1 adipocyte cells; assay: Nile Red detection of lipid droplets (intensity, size, number) in adipocytes; assay type: cell-based
Description: The culture, the differentiation of 3T3-L1 cells, then the treatment with the compounds to be tested are performed as in example 2. The lipid detection is performed using Nile Red fluorescent stain, a phenoxazone that intensely labels the intracellular lipids. The color of the fluorescence observed is directly dependent upon the hydrophobicity of the surrounding medium. This specific property of Nile Red makes it possible to differentiate neutral lipids, labeled in gold-yellow, from phospholipids, labeled in red. […] The cells are examined with the fluorescence microscope. The quantification and statistical analysis are performed as in example 2.

[2] = with respect to untreated cells

Cn1c(=O)c2c(ncn2C)n(C)c1=O [Caffeine, caffeine]
increase in fluorescence (aquaglyceroporin 7 immunolabeling) (aquaglyceroporin 7): 12.6% | Average droplet size ([1]; differentiated 3T3-L1 cells): 109.55 μm^2 | Number of droplets ([1]; differentiated 3T3-L1 cells): 219 | Intensity of the Nile Red labeling, Ratio ([1]; differentiated 3T3-L1 cells, carob extract 1% 12 days, caffeine 2 mM 5 hours): 180.47 Pixels/μm^2 | intensity of the Nile Red labeling, size and number of droplets (in words) ([1]; with respect to the untreated cells): reduced | Droplet size, % reduction [1, 2]: −17.40% | Intensity of the Nile Red labeling, % reduction [1, 2]: −37.36% | Number of droplets, % reduction [1, 2]: −18%
